From patent US20240376118A1, “BI-FUNCTIONAL COMPOUNDS AND METHODS FOR TARGETED UBIQUITINATION OF ANDROGEN RECEPTOR” (MONTELINO THERAPEUTICS, INC., priority 2021, published 2024)
pIC50: −log10 of the molar value.

What follows are molecules tested on 22Rv1-Enz^R human prostate cancer cell line (assay: 22Rv1-Enz^R cell proliferation assay). Conditions: 22Rv1-Enz^R cells, 6-day culture, cell media changed every 24 hours, read-out: 22Rv1-Enz^R proliferation assay GIC50 (half maximal growth inhibition constant).
Format: cell-based
Procedure: The human prostate cancer cell line, 22Rv1 has been reported to express a high level of AR-V7. According to one procedure, 22Rv1 is seeded at 50,000 cells/well on a 24-well plate in quadruplicate and treated with test compounds in concentrations ranging up to 20 μM for four days. Standard culture media is RPMI-1640 supplemented with 10% fetal bovine serum. The test compound initially is dissolved in DMSO at 50 mM. This stock solution is then diluted as needed for the indicated concentrations. At the end of the four-day period, cells are harvested using 1% trypsin and counted using an automated cell counter.
Cell Culture. Human CaP cell lines, LNCaP, 22Rv1, VCaP, PC3, and DU145 are obtained from the American Type Culture Collection (ATCC) and maintained in the standard culture media: RPMI-1640 supplemented with 10% fetal bovine serum (FBS). LNCaP, 22Rv1, and VCaP are androgen-responsive cell lines, while PC3 and DU145 are not. To establish SAT resistant CaP cell lines, LNCaP, 22Rv1, and VCaP are treated continuously with 10-50 μM abiraterone, apalutamide, darolutamide, or enzalutamide. After 3-6 months, stable cell lines are established and designated as LNCaP-Abi^R, LNCaP-Apa^R, LNCaP-Daro^R, LNCaP-Enz^R, VCaP-Abi^R, VCaP-Apa^R, VCaP-Daro^R, VCaP-Enz^R, 22Rv1-Abi^R, 22Rv1-Apa^R, 22Rv1-Daro^R and 22Rv1-Enz^R. Unless otherwise specified, the standard culture media for these SAT-resistant cell lines included 10 μM of their respective SAT. For the proteasome inhibitor study, the inhibitors MG132 and Epoxomicin are used. The E3 ligase inhibitors Heclin, Nutlin 3a, Thalidomide, and VH298 are used. Cell lines obtained from ATCC are confirmed by checking their morphology using optical microscopy, establishing baselines for cell proliferation, verifying species of origin using isoenzymology, and characterizing the cell's DNA fingerprint using short tandem repeat (STR) profiling. Mycoplasma contamination is also assessed using a PCR based detection system.
Selected compounds may be tested in the human prostate cancer cell line, 22Rv1-Enz^R, as described in Geun Taek Lee et al., Molecular Cancer Therapeutics, 20:490-9 (2021). These procedures are similar to that described in Experimental Example 1, above, except that the assay conditions are a 6-day culture with cell media changed every 24 hours.

pIC50, > 5.00:
O=C(COc1c(-c2csc(N3CCOCC3)n2)ccc(F)c1F)NCCCCC(=O)N1CCN(c2cc3c(cc2F)C(=O)N(C2CCC(=O)NC2=O)C3=O)CC1 (stereo not drawn) [Example 1, 2-(2,3-difluoro-6-(2-morpholinothiazol-4-yl)phenoxy)-N-(5-(4-(2-(2,6-dioxopiperidin-3-yl)-6-fluoro-1,3-dioxoisoindolin-5-yl)piperazin-1-yl)-5-oxopentyl)acetamide]
O=C(COc1c(-c2csc(N3CCOCC3)n2)ccc(F)c1F)NCCCCCCC(=O)N1CCN(c2cc3c(cc2F)C(=O)N(C2CCC(=O)NC2=O)C3=O)CC1 (stereo not drawn) [Example 2, 2-(2,3-difluoro-6-(2-morpholinothiazol-4-yl)phenoxy)-N-(7-(4-(2-(2,6-dioxopiperidin-3-yl)-6-fluoro-1,3-dioxoisoindolin-5-yl)piperazin-1-yl)-7-oxoheptyl)acetamide]
O=C(COc1c(-c2csc(N3CCOCC3)n2)ccc(F)c1F)NCCCCCCCCCCC(=O)N1CCN(c2cc3c(cc2F)C(=O)N(C2CCC(=O)NC2=O)C3=O)CC1 (stereo not drawn) [Example 3, 2-(2,3-difluoro-6-(2-morpholinothiazol-4-yl)phenoxy)-N-(11-(4-(2-(2,6-dioxopiperidin-3-yl)-6-fluoro-1,3-dioxoisoindolin-5-yl)piperazin-1-yl)-11-oxoundecyl)acetamide]
O=C1CCC(N2C(=O)c3cc(F)c(N4CCN(CC5CCN(C(=O)COc6c(-c7csc(N8CCOCC8)n7)ccc(F)c6F)CC5)CC4)cc3C2=O)C(=O)N1 (stereo not drawn) [Example 20, 5-(4-((1-(2-(2,3-difluoro-6-(2-morpholinothiazol-4-yl)phenoxy)acetyl)piperidin-4-yl)methyl)piperazin-1-yl)-2-(2,6-dioxopiperidin-3-yl)-6-fluoroisoindoline-1,3-dione]
O=C(COc1c(-c2csc(N3CCOCC3)n2)ccc(F)c1F)NCCCCCCCCCCNc1cc2c(cc1F)C(=O)N(C1CCC(=O)NC1=O)C2=O (stereo not drawn) [Example 25, 2-(2,3-difluoro-6-(2-morpholinothiazol-4-yl)phenoxy)-N-(10-((2-(2,6-dioxopiperidin-3-yl)-6-fluoro-1,3-dioxoisoindolin-5-yl)amino)decyl)acetamide]
O=C1CCC(N2C(=O)c3cc(F)c(NCCCCOCCOCCOCCOc4c(-c5csc(N6CCOCC6)n5)ccc(F)c4F)cc3C2=O)C(=O)N1 (stereo not drawn) [Example 32, 5-((4-(2-(2-(2-(2,3-difluoro-6-(2-morpholinothiazol-4-yl)phenoxy)ethoxy)ethoxy)ethoxy)butyl)amino)-2-(2,6-dioxopiperidin-3-yl)-6-fluoroisoindoline-1,3-dione]
